Experimental findings from patent US10689413B2, “Composition enriched in single isomer of NUC-1031 and preparation method and use thereof” (BrightGene Bio-Medical Technology Co., Ltd., priority 2015, dated 2020) are described below.

In general, IC50 refers to the midpoint of a concentration-inhibition curve.

Test [1] concerns BxPC-3 tumor cells. The test can be described thus: Tumor cell proliferation in vitro, CTG method, BxPC-3. Format: cell-based. Conditions: BxPC-3, 72 hours; for IC50: Homo sapiens. The procedure: (§1) The 50% inhibitory concentrations (IC50) for the cell proliferation of the compound Sp-1, the compound Rp-1 and NUC-1031 in BxPC-3, MIA PaCa-2 and OVCAR-3 tumor cell lines were measured using the CTG method.
(§2) Cells in an exponential growth phase were collected and the viable cells were counted using a Vi-Cell XR cell counter. The cell suspension was adjusted to 3.33×10^4/ml or 5.56×10^4/ml with culture media corresponding to the respective cells. 90 μl of cell suspension was added to each well of a 96-well cell culture plate, and the final cell concentrations of BxPC-3 and MIA PaCa-2 were 3000 cells/well and the final cell concentration of OVCAR-3 was 5000 cells/well. Each test compound was dissolved in DMSO to become 10 mM stock solutions. 3.16× serial dilutions were prepared by the stock solutions and DMSO. Then the dilutions were respectively diluted 100 times with the culture media. Finally, to each well of the respective cell lines was added 10 μl of the corresponding 10-fold solution, triplicate wells were set up for each drug concentration (see the methods for formulating the compounds and the design of sample adding: the plate map for IC50 determination); for the concentration ranges of the test compounds and the reference compounds used for the final tests, please see the methods for formulating the compounds and the design of sample adding on the following pages: the test compounds and the reference compounds were diluted, and the final concentration of DMSO in each well was 0.1%. The cells were placed in an incubator at 37° C. with 5% CO2 to be cultured for 72 hours (BxPC-3, MIA PaCa-2) or 96 hours (OVCAR-3). After 72 or 96 hours of drug treatment, 50 μl (½ culture volume) of CTG solution, which had been melted and equilibrated to room temperature in advance was added to each well according to the operating instruction of CTG; the mixtures were mixed evenly for 2 minutes with a microwell plate shaker, placed at room temperature for 10 minutes, and then an Envision 2104 plate reader was used to measure the values of the […] signals.
(§3) Cell viability was calculated with the formula: Vsample/Vvehicle control×100%, wherein Vsample is the reading of the treatment group and Vvehicle control is the average value of the vehicle control group. Non-linear regression model was used to plot the S-shape dose-survival rate curves and calculate the IC50 values using GraphPad Prism 5.0 software.

Test [2] relates to MIA PaCa-2 tumor cells. The test can be described thus: Tumor cell proliferation in vitro, CTG method, MIA PaCa-2. Format: cell-based, human. Conditions: MIA PaCa-2, 72 hours; for IC50: Homo sapiens. On the procedure: as §1, §2, §3
In test [3] the test system is OVCAR-3 tumor cells. The test can be described thus: Tumor cell proliferation in vitro, CTG method, OVCAR-3. Format: cell-based. The conditions noted are these: OVCAR-3, 96 hours; for IC50: Homo sapiens. The procedure: as §1, §2, §3
For test [4], the system named is BxPC-3, MIA PaCa-2 and OVCAR-3 tumor cells. The test is described as follows: Tumor cell proliferation in vitro, summary over the three cell lines. Format: cell-based. The conditions noted are these: for IC50: span over BxPC-3, MIA PaCa-2 and OVCAR-3, read-out: IC50 values (cytotoxic effect). The procedure:
as §1, §2, §3

The test system of test [5] is MIA PaCa-2 human pancreatic cancer subcutaneous xenograft. The test is described as follows: Pharmacodynamic evaluation in human pancreatic cancer subcutaneous xenograft mouse model. The conditions noted are these: for Relative tumor inhibition rate TGI: 0.19 mmoL/kg i.p. twice a week for 4 consecutive weeks (gemcitabine 50 mg/kg, others 110 mg/kg). The test is classed as in vivo, BALB/c nude mice. On the procedure:
Cell Culture: MIA PaCa-2 cells were cultured in a DMEM culture medium containing 10% fetal bovine serum and 2.5% HS. MIA PaCa-2 cells in an exponential growth phase were collected and resuspended in PBS to a suitable concentration for the subcutaneous tumor inoculation in nude mice.
Animal modeling and Grouping: BALB/c nude mice, female, 6 to 8 weeks old (the predicted weeks of age of the mice when being inoculated with tumor cells), 18 to 22 g, purchased from Shanghai Lingchang Biological Technology Co., LTD. A total of 52 mice (40 plus 30% surplus) were required. After grouping, there were 5 groups in total, each group having 8 mice. All experimental mice were raised in a barrier system and adapted to the environment for at least 7 days in advance. Each mice was subcutaneously inoculated with 3×10^6 MIA PaCa-2 cells on the right back and the cells were resuspended in PBS and matrigel (1:1) (0.1 ml/mice); the tumor growth was observed regularly, and when the tumor volumes reached an average size of 150 to 200 mm^3, the mice were randomly divided into groups according to the size of tumor and body weight of the mice, and the drugs were administered.
Relative tumor inhibition rate TGI(%): TGI %=(1−T/C)×100%. T/C % is the relative tumor growth rate, which is the percentage of the relative tumor volume or tumor weight of the treatment groups with respect to the control group at a certain timepoint. T and C are the relative tumor volume (RTV) or tumor weight (TW), respectively, of the treatment groups and the control group at a particular timepoint.
The calculation formula is as follows: T/C %=TRTV/CRTV×100% (TRTV: the average RTV of a treatment group; CRTV: the average RTV of the vehicle control group; RTV=Vt/V0, V0 is the tumor volume of an animal at the time of grouping, Vt is the tumor volume of an animal after treatment). Or T/C %=TTW/CTW×100% (TTW: the average tumor weight of a treatment group at the end of the experiment; CTW: the average tumor weight of the vehicle control group at the end of the experiment).

Molecules are shown by their SMILES. Entries after “also recorded” stand apart in the source; their conditions may differ.

Turning to `C[C@H](N[P@](=O)(OC[C@H]1O[C@@H](n2ccc(N)nc2=O)C(F)(F)[C@@H]1O)Oc1ccccc1)C(=O)OCc1ccccc1` [Compound Sp-1], the Max inh. in test [1] is reported as 66.48%; in test [2], 71%; in test [3], 58.22%. Moreover, the IC50 in test [1] was 0.045 nM; in test [2], 0.012 nM; in test [3], 0.013 nM; in test [4] it was 0.01 to 1 nM. Also, the “inhibitory effect on the proliferation activity of tumor cells in vitro relative to compound Rp-1” value in test [4] (versus compound Rp-1) is listed as “about 10 times”. Besides, the “Relative tumor inhibition rate TGI” value in test [5] was 79%. Also, the “in vivo antitumor activity, comparison in words” value in test [5] (equimolar dose, i.p., BIW x 4) is “better in vivo anti-tumor activity than the compound Rp-1; also recorded: better in vivo antitumor activity as compared with gemcitabine and the compound Rp-1”.

For `C[C@H](NP(=O)(OC[C@H]1O[C@@H](n2ccc(N)nc2=O)C(F)(F)[C@@H]1O)Oc1ccccc1)C(=O)OCc1ccccc1` (stereo partly drawn) [NUC-1031], the Max inh. in test [1] worked out at 65.82%; in test [2] it was 65.03%; in test [3], 56.3%. In addition, the IC50 is 0.263 nM in test [1], 0.063 nM in test [2], 0.095 nM in test [3] and 0.01 to 1 nM in test [4]. In addition, in test [5], the “Relative tumor inhibition rate TGI” value was found to be 54%.

On to `Nc1ccn([C@@H]2O[C@H](CO)[C@@H](O)C2(F)F)c(=O)n1` [Gemcitabine, reference compound], for which, in test [5], the “Relative tumor inhibition rate TGI” value amounted to 55%.

In the case of `C[C@H](N[P@@](=O)(OC[C@H]1O[C@@H](n2ccc(N)nc2=O)C(F)(F)[C@@H]1O)Oc1ccccc1)C(=O)OCc1ccccc1` [Compound Rp-1], the Max inh. in test [1] amounted to 61.54%; in test [2], 69.2%; in test [3], 54.19%. The concentration for half-maximal inhibition (IC50) was 0.554 nM in test [1], 0.126 nM in test [2], 0.167 nM in test [3] and 0.01 to 1 nM in test [4]. Moreover, the “Relative tumor inhibition rate TGI” value in test [5] is listed as 22%.
